Entries after “also recorded” stand apart in the source; their conditions may differ. Read-outs that look alike come from different tables or passages of the source. *1 amine or outer side, *2 acyl side, *3 side chain or, on linkers, in order; H or OH if unused. Where a SMILES comes first, the peptide text is derived from it. Bridges are numbered along the chain shown (N, C = ends). Roman numbers before positions name the chains, in order. Where no end group is shown, it is not given here. [ ]: non-standard residue; d: D form. Actinocin(9to1) = Cc1c2oc3c(C)ccc(C(=O)[*:1])c3nc-2c(C(=O)[*:2])c(N)c1=O; NMeV = CN[C@H](C(=O)O)C(C)C; Sar = CNCC(=O)O

The values below come from US5434247A, “Peptides for inducing monocyte cytotoxicity in diagnostics” (Board of Regents, The University of Texas System, priority 1992, dated 1995).

For one data set, the system named is FtF3 cells. In words: Effects of metabolic inhibitors and tunicamycin on MCF production. The data set is classed as cell-based, human. The settings on record: for biological activity of MCF after biosynthesis in the presence of the agent: tunicamycin 0, 1, 2.5 or 5.0 ug/ml; for effect on MCF production of PHA-stimulated FtF3 cells: cells incubated 4 h with inhibitor (0 to 100 ug/ml), washed, PHA 24 h; for effect on MCF production of nonstimulated (non-PHA treated) cells: puromycin at doses of 10-50 ug/ml. The protocol: FIG. 2. FtF3 cells were incubated 4 h with various doses of actinomycin D. Cells were washed and stimulated with PHA for 24 h before harvesting supernatants by centrifugation, extensive dialysis, and bioassay.( ) One set of each dose of inhibitor-treated cells was labelled with ^3 H-uridine, stimulated, lysed and harvested 24 h later, and counted by liquid scintillation.(.quadrature.) Viability of FtF3 at 24 h was greater than 80% at all doses tested.
FIG. 3. FtF3 cells were incubated 4 h with various doses of cycloheximide. Cells were washed and stimulated with PHA for 24 h before harvesting supernatants by centrifugation, extensive dialysis, and bioassay.( ) One set of each dose of inhibitor-treated cells was labelled with 3 H-amino acids, stimulated, TCA-precipitated 24 h later, and counted by liquid scintillation.(.quadrature.) Viability of FtF3 at 24 h was greater than 80% at all doses tested.
FIG. 4. FtF3 cells were incubated 4 h with various doses of puromycin. Cells were washed and resuspended either with ( ) or without (.quadrature.) PHA, and incubated 24 h before harvesting supernatants by centrifugation, extensive dialysis, and bioassay. Viability of FtF3 at 24 h was greater than 80% at all doses tested.
Urea treatment was accomplished by adding 3 grams of solid urea to 10 ml MCF (28.5 U/ml) (5M urea final). Extraction of MCF with butanol-diisopropyl ether was performed. FtF3 cells were cultured with 0, 1, 2.5 or 5.0 ug/ml tunicamycin. […] MCF supernatants were extracted with butanol-diisopropyl ether; the aqueous phase contained 36.7% less MCF than the control preparation.
FtF3 cells at a concentration of 1×10^6 /ml in RPMI 1640/10% FCS were incubated 4 hours with either actinomycin D, cycloheximide, or puromycin (all at 0 to 100 ug/ml, Sigma). Tests for viability after treatment were performed by trypan blue exclusion and supernatants were collected by centrifugation. In a second set of experiments FtF3 cells at the same concentration but using 0.1% human serum were incubated for 5 hours with either cycloheximide or puromycin. Uptake experiments were performed by adjusting FtF3 cells to 1×10^6 /ml in media after treatment with inhibitor, and adding either 5,6-^3 H-uridine (ICN Radiochemicals, Irvine, Calif., USA, […]) to actinomycin D treated cells or ^3 H L-amino acid mixture (25.5 mci/mg) to cycloheximide-treated cells at 1 uCi to 1×10^5 cells. Cells were subsequently lysed and counted by liquid scintillation.

For another data set, the system named is human monocytes / K562. In words: Human monocyte cytotoxicity assay (MCF assay), 111In-Ox labeled K562 targets. The class given is cell-based. The conditions noted are these: for monocyte cytotoxicity inducing activity (in words) / concentration at which the peptide activates human blood monocytes for cytotoxicity: K562 target; for concentration at which the peptide activates human blood monocytes for cytotoxicity: purified peptide, monocytes of eight human donors. Here is the method: FIG. 1. Hybrid cells were adjusted to 1×10^6 /ml and stimulated with 8 ug/ml PHA(+). […] to control (-) cultures, and both supernatants harvested by centrifugation. Monocyte cytotoxicity was measured as described herein with the exception that the monocyte monolayer was incubated overnight to allow for decay of NK cell activity. The monolayer was incubated for a second 24 hr period with dilutions of MCF containing supernatants. Dilutions represented are 1/4 in a total test volume of 0.2 ml. […] Microtiter plates were centrifuged 16 hrs later, and supernatants collected and counted. % specific release was calculated as described herein.
Only healthy volunteer donors were used. All volunteer donors signed an informed consent, and the protocol was approved by the Committee for the Protection of Human Subjects, University of Texas Health Science Center. Mononuclear cells were prepared by centrifugation over Ficoll/Hypaque. […] The monolayer was incubated overnight to allow for decay of residual natural killer activity before addition of lymphokine preparations on day 2.
The effector to target ratio was 30:1. […] After 18 hrs incubation of monocyte monolayer with target, the plates were centrifuged and supernatant was removed and cpms were counted in a Beckman Biogamma 2000. Specific release was calculated as described by Wiltrout, supra. […] Other tumor targets used were HL-60, L5178Y and TU5 (Table V).

Data set [1] can be described thus: Enzyme treatment of MCF supernatants. The class given is physicochemical. The settings on record: in contrast to MCF. Here is the method: In order to treat MCF supernatants with enzymes, 10 ml of the supernatant (28.5 units/ml) were treated with 1 mg/ml trypsin at pH 7.4, 1 mg/ml chymotrypsin at pH 7.4, 0.5 mg/ml DNase at pH 7.4, or 40 units/ml RNase at pH 5 for 1 hour at 25° C. […] The experiments were repeated using insolubilized enzymes to minimize the possibility that enzymes could be carried over into the bioassay and could explain the results.

[2] abbreviates: all doses tested, trypan blue exclusion.

Regarding `OCCS` [2-mercaptoethanol], in the data set with FtF3 cells, the “biological activity of MCF after biosynthesis in the presence of the agent” value is “no significant change”.

As to `Cc1c2oc3c(C)ccc(C(=O)N[C@@H]4C(=O)N[C@H](C(C)C)C(=O)N5CCC[C@H]5C(=O)N(C)CC(=O)N(C)[C@@H](C(C)C)C(=O)O[C@@H]4C)c3nc-2c(C(=O)N[C@@H]2C(=O)N[C@H](C(C)C)C(=O)N3CCC[C@H]3C(=O)N(C)CC(=O)N(C)[C@@H](C(C)C)C(=O)O[C@@H]2C)c(N)c1=O` [actinomycin D] (I: T[dV]P[Sar][NMeV] / II: T[dV]P[Sar][NMeV]; ester I:1-I:C, II:1-II:C; linker I:N-II:N via Actinocin(9to1)), the “Viability of FtF3 at 24 h” value in the data set with FtF3 cells (setting [2]) is recorded as “greater than 80%”. In the data set on FtF3 cells, the “effect on MCF production of PHA-stimulated FtF3 cells” value (“effect … of PHA-stimulated FtF3 cells” below) is reported as “totally suppressed” and the “effect on MCF production of nonstimulated (non-PHA treated) cells” value (“effect … (non-PHA treated) cells” for short) is on record as “no effect”.

Regarding `C[C@@H]1C[C@@H]([C@H](O)CC2CC(=O)NC(=O)C2)C(=O)[C@@H](C)C1` [cycloheximide], in the data set with FtF3 cells, the “lectin-induced MCF production with inhibitor present for the entire incubation period” value is reported as “not suppressed”, the “effect … of PHA-stimulated FtF3 cells” value is “suppressed but did not abolish” and the “effect … (non-PHA treated) cells” value is given as “only a slight stimulatory effect”. The “Viability of FtF3 at 24 h” value in the data set on FtF3 cells (setting [2]) is recorded as “greater than 80%”.

Regarding `COc1ccc(C[C@H](N)C(=O)N[C@H]2[C@@H](O)[C@H](n3cnc4c(N(C)C)ncnc43)O[C@@H]2CO)cc1` [puromycin], in the data set with FtF3 cells, the “Viability of FtF3 at 24 h” value is reported as “greater than 80%”, the “lectin-induced MCF production with inhibitor present for the entire incubation period” value is recorded as “suppressive in a dose-dependent manner”, the “effect … of PHA-stimulated FtF3 cells” value is given as “suppressed but did not totally abolish” and the “effect … (non-PHA treated) cells” value is listed as “appeared to stimulate”.

On to GAAVLEDSQ [MJ-2], for which, in the data set on human monocytes / K562, the “monocyte cytotoxicity inducing activity (in words)” value is recorded as “exhibits the same high level activity as the intact protein of 29kD; also recorded: capable of activating human blood monocytes for tumor cytotoxicity; also recorded: to a similar extent as the intact protein of 29kD” and the “concentration at which the peptide activates human blood monocytes for cytotoxicity” value is recorded as “approximately 10^-9 M”.

Consider GAAVLENSQ [MJ-1], for which, in the data set on human monocytes / K562, the “monocyte cytotoxicity inducing activity (in words)” value is reported as “capable of inducing human monocyte cytotoxicity; also recorded: found to have biological MCF activity” and the “concentration at which the peptide activates human blood monocytes for cytotoxicity” value is 10^-6 M. Moreover, the “decrease in the biological activity of the peptide by the substitution, versus MJ-2” value with human monocytes / K562 (parallel assays, same human donors) is around 3 log fold.

As to “GM-CSF: recombinant GM-CSF [reference compound]”, the results for the “% specific lysis” value in the data set with human monocytes / K562 (cytokine added at 50 U/ml), in the data set with human monocytes / K562 (cytokine added at 100 U/ml) and with human monocytes / K562 (cytokine added at 200 U/ml) were -2.5 ± 15.9%, 5.7 ± 3.1% and -0.6 ± 4.9%, respectively.

For “Gly Ala Ala Val Leu (GAAVL; printed: Gly Ala Ala Val Leu) [MJ-3, truncated five-mer, native 5 N-terminal amino acids of P29]”, the entries for the “monocyte cytotoxicity inducing activity (in words)” value with human monocytes / K562 and in the data set with human monocytes / K562 (listed as MJ3) were “not determined to be above the background for the assay” and “did not reliably exhibit biological activity”, respectively. Besides, in the data set with human monocytes / K562 (one experiment, input of 10^2 mg of protein), the “specific release of label” value was found to be 25%.

For the molecule IFN-α [reference compound], the “% specific lysis” value is recorded as 4.5 ± 3.0% with human monocytes / K562 (cytokine added at 1 U/ml), -5.4 ± 9.2% in the data set on human monocytes / K562 (cytokine added at 10 U/ml), -2.1 ± 12.4% with human monocytes / K562 (cytokine added at 100 U/ml) and -8.9 ± 8.8% in the data set with human monocytes / K562 (cytokine added at 1000 U/ml).

Turning to Leu Glu Asp Ser Gln (LEDSQ) [MJ-5], the “monocyte cytotoxicity inducing activity (in words)” value in the data set with human monocytes / K562 is listed as “critical for biological activity”.

Regarding “rIL1β: recombinant IL 1 beta (Cistron Biotechnology) [reference compound]”, the “% specific lysis” value in the data set with human monocytes / K562 (cytokine added at 0.1 U/ml) is given as -8.7 ± 2.8%; in the data set with human monocytes / K562 (cytokine added at 1 U/ml), -4.9 ± 4.6%; in the data set with human monocytes / K562 (cytokine added at 10 U/ml), -1.8 ± 9.6%.

Turning to tunicamycin, in the data set with FtF3 cells, the “biological activity of MCF after biosynthesis in the presence of the agent” value is given as “no significant change”.

B1: m-CSF: purified m-CSF (protein, UniProt P09603 33-554, looked up)
Macrophage colony-stimulating …: EEVSEYCSHMIGSGHLQSLQRLIDSQMETSCQITFEFVDQEQLKDPVCYLKKAFLLVQDIMEDTMRFRDNTPNAIAIVQLQELSLRLKSCFTKDYEEHDKACVRTFYETPLQLLEKVKNVFNETKNLLDKDWNIFSKNCNNSFAECSSQDVVTKPDCNCLYPKAIPSSDPASVSPHQPLAPSMAPVAGLTWEDSEGTEGSSLLPGEQPLHTVDPGSAKQRPPRSTCQSFEPPETPVVKDSTIGGSPQPRPSVGAFNPGMEDILDSAMGTNWVPEEASGEASEIPVPQGTELSPSRPGGGSMQTEPARPSNFLSASSPLPASAKGQQPADVTGTALPRVGPVRPTGQDWNHTPQKTDHPSALLRDPPEPGSPRISSLRPQGLSNPSTLSAQPQLSRSHSSGSVLPLGELEGRRSTRDRRSPAEPEGGPASEGAARPLPRFNSVPLTDTGHERQSEGSFSPQLQESVFHLLVPSVILVLLAVGGLLFYRWRRRSHQEPQRADSPLEQPEGSPLTQDDRQVELPV
With B1, the “% specific lysis” value in the data set on human monocytes / K562 (cytokine added at 17.3 U/ml) is reported as 26.0 ± 6.5%; in the data set on human monocytes / K562 (cytokine added at 173 U/ml) it was 14.5 ± 4.6%; in the data set on human monocytes / K562 (cytokine added at 1730 U/ml), -3.9 ± 4.7%.

B2: IFN-γ: human gamma interferon (protein, UniProt P01579 24-161, looked up)
Interferon gamma: QDPYVKEAENLKKYFNAGHSDVADNGTLFLGILKNWKEESDRKIMQSQIVSFYFKLFKNFKDDQSIQKSVETIKEDMNVKFFNSNKKKRDDFEKLTNYSVTDLNVQRKAIHELIQVMAELSPAAKTGKRKRSQMLFRG
Turning to B2, the effect of trypsin entry in data set [1] was “inactivated”. For the same molecule, the “monocyte cytotoxicity inducing activity (in words)” value in the data set on human monocytes / K562 was “only slight activity”. In addition, in the data set on human monocytes / K562 (amounts up to 1000 U/ml final concentration), the “increase in specific lysis” value is 6.2%. The “% specific lysis” value was -3.5 ± 1.1% in the data set on human monocytes / K562 (cytokine added at 10 U/ml), 3.4 ± 3.2% in the data set with human monocytes / K562 (cytokine added at 100 U/ml) and 6.2 ± 4.4% in the data set with human monocytes / K562 (cytokine added at 1000 U/ml).

B3: eIL1α: recombinant IL 1 alpha (Cistron Biotechnology) (protein, UniProt P01583 113-271, looked up)
Interleukin-1 alpha: SAPFSFLSNVKYNFMRIIKYEFILNDALNQSIIRANDQYLTAAALHNLDEAVKFDMGAYKSSKDDAKITVILRISKTQLYVTAQDEDQPVLLKEMPEIPKTITGSETNLLFFWETHGTKNYFTSVAHPNLFIATKQDYWVCLAGGPPSITDFQILENQA
With B3, the “% specific lysis” value with human monocytes / K562 (cytokine added at 0.1 U/ml) was -4.1 ± 4.1%; with human monocytes / K562 (cytokine added at 1 U/ml) it was -3.6 ± 5.6%; in the data set with human monocytes / K562 (cytokine added at 10 U/ml), -0.7 ± 7.6%.
